Assay results from patent publication US20250243171A1, “QUINAZOLINE COMPOUNDS FOR TREATMENT OF DISEASE” (Arthrosi Therapeutics, Inc., priority 2021, published 2025).

Columns and labels:
Assay in all cases: EC50 assay: Ba/F3 stable cell proliferation (CCK-8, 72 h)
Assay type in all cases: cell-based
Ba/F3 stable cells [1] = target: T1, Ba/F3 stable cells (Homo sapiens, UniProt P00533, DUP767-769, cells depend on it); details: Ba/F3-EGFR V769-D770insASV cells
T1 construct: EC50 Ba/F3-EGFR V769-D770insASV; other: Ba/F3-EGFR V769-D770insASV cells, 72 h, CCK-8
T1 sequence (P00533 with tags, fused parts or gaps DUP767-769): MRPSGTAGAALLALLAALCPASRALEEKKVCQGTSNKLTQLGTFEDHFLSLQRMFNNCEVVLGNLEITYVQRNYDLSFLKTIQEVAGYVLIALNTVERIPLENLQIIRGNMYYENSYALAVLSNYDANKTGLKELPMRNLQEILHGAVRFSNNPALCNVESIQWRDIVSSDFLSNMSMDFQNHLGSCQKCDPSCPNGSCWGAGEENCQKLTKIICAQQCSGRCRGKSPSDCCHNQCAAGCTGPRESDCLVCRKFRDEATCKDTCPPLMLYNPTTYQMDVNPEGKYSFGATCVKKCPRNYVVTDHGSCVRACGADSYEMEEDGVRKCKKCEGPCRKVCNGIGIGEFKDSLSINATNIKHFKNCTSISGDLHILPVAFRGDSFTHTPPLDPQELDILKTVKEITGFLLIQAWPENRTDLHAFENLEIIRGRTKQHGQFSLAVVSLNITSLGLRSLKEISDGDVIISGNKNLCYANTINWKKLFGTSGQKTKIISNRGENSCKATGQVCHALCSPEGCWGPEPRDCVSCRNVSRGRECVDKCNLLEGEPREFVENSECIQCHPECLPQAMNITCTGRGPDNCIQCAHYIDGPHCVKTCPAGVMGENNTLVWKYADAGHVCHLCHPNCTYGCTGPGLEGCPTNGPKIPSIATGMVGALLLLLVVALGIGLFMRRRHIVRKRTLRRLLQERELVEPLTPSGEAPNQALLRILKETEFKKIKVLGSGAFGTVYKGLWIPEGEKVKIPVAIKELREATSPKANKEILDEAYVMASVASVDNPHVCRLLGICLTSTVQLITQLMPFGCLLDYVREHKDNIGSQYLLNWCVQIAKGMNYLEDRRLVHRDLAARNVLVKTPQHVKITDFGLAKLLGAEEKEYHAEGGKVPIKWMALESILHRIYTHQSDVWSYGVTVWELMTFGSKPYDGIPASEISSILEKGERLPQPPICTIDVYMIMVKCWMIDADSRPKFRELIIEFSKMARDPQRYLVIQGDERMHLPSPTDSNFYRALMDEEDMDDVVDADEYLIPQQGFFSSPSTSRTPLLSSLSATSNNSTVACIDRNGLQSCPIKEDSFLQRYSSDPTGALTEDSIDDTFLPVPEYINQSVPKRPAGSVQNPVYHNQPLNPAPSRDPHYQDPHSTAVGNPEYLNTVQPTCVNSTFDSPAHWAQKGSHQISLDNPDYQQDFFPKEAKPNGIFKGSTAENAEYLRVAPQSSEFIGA
Summary of the method: (§1)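 Ba/F3 stable cells were seeded at 4,000 cells/90 μL/well in 96-well plates and held 2 h at 37° C. in 5% CO2, then given 10 μL of serially titrated compound (0.1% DMSO final). After 72 h at 37° C., CCK-8 reagent was added for 4 hours and absorbance read at 450 nm to derive EC50.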

Ba/F3 stable cells [2] = target: T2, Ba/F3 stable cells (Homo sapiens, UniProt P00533, DUP768-770, cells depend on it); details: Ba/F3-EGFR D770-N771insSVD cells
T2 construct: EC50 Ba/F3-EGFR D770-N771insSVD; other: Ba/F3-EGFR D770-N771insSVD cells, 72 h, CCK-8
Summary of the method: as §1

Ba/F3 stable cells [3] = target: T3, Ba/F3 stable cells (Homo sapiens, UniProt P00533, DUP771-773, cells depend on it); details: Ba/F3-EGFR H773-V774insNPH cells
T3 construct: EC50 Ba/F3-EGFR H773-V774insNPH; other: Ba/F3-EGFR H773-V774insNPH cells, 72 h, CCK-8
T3 sequence (P00533 with tags, fused parts or gaps DUP771-773): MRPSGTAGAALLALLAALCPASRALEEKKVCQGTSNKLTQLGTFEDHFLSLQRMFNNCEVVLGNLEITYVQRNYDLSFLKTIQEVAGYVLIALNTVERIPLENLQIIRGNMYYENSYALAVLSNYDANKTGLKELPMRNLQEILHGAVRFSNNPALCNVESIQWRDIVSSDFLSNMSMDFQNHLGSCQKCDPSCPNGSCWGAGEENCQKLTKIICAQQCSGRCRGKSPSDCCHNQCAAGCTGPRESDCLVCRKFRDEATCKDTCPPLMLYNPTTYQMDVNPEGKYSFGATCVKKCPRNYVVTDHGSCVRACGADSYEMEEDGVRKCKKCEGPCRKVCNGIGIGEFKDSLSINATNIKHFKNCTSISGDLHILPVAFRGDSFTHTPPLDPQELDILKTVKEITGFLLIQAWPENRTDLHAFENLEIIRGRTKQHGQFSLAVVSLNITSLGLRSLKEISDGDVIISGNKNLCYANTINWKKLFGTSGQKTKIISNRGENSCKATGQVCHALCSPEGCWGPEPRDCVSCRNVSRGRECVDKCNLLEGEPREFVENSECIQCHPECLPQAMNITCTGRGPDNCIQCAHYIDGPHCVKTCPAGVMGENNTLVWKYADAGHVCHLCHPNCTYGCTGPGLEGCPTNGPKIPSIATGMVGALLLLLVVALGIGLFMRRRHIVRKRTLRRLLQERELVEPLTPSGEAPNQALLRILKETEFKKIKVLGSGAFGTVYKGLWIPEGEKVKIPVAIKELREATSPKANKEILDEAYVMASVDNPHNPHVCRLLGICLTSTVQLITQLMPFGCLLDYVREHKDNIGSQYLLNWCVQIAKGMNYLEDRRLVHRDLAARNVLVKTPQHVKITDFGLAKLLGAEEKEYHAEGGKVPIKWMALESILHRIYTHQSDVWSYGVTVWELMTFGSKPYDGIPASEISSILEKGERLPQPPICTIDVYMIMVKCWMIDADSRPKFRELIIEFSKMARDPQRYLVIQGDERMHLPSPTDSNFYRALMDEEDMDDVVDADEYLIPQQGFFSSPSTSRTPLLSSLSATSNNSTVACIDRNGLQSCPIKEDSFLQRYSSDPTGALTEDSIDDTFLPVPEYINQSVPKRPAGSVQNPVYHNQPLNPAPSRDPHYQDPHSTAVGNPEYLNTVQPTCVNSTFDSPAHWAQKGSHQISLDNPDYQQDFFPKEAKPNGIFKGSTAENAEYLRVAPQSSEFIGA
Summary of the method: as §1

Ba/F3 stable cells [4] = target: T4, Ba/F3 stable cells (Homo sapiens, UniProt P00533, INS763FQEA, cells depend on it); details: Ba/F3-EGFR A763-Y764insFQEA cells
T4 construct: EC50 Ba/F3-EGFR A763-Y764insFQEA; other: Ba/F3-EGFR A763-Y764insFQEA cells, 72 h, CCK-8
T4 sequence (P00533 with tags, fused parts or gaps INS763FQEA): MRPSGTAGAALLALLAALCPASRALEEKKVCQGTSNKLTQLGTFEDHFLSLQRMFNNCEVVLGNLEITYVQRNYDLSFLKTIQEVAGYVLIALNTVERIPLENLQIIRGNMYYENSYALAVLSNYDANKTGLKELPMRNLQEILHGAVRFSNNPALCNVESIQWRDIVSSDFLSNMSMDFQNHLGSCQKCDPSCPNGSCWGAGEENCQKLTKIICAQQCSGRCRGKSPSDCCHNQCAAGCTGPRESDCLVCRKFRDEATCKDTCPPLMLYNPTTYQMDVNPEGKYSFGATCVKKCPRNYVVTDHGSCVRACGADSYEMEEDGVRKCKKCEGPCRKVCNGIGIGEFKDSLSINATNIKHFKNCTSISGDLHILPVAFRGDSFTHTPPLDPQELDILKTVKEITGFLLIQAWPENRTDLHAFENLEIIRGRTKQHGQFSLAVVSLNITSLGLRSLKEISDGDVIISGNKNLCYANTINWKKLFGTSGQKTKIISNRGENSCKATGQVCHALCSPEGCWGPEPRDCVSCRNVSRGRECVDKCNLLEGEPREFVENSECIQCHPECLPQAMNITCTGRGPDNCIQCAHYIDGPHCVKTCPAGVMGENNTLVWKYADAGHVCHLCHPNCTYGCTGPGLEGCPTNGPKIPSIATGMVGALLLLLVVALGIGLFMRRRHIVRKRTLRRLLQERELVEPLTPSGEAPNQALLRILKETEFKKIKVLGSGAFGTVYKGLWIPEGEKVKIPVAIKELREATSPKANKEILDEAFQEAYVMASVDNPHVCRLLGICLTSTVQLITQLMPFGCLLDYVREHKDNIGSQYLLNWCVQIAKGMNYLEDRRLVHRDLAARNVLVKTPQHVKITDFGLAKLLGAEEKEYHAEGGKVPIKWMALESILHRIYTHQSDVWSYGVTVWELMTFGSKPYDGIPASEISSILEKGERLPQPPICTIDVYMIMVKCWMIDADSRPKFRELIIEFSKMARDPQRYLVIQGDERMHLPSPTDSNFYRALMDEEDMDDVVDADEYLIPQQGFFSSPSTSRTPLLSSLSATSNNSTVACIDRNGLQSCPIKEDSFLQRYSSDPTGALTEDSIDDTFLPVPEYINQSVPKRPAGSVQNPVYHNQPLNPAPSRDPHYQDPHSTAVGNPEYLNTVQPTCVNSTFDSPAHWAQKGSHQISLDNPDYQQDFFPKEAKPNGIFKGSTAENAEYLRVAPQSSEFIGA
Summary of the method: as §1

Ba/F3 stable cells [5] = target: T5, Ba/F3 stable cells (Homo sapiens, UniProt P00533, T790M/L858R, cells depend on it); details: Ba/F3-EGFR L858R-T790M cells
T5 construct: EC50 Ba/F3-EGFR L858R-T790M; other: Ba/F3-EGFR L858R-T790M cells, 72 h, CCK-8
Summary of the method: as §1

Ba/F3 stable cells [6] = target: T6, Ba/F3 stable cells (Homo sapiens, UniProt P04626, DUP772-775, cells depend on it); details: Ba/F3-HER2 A775-G776insYVMA cells
T6 construct: EC50 Ba/F3-HER2 A775-G776insYVMA; other: Ba/F3-HER2 A775-G776insYVMA cells, 72 h, CCK-8
T6 sequence (P04626 with tags, fused parts or gaps DUP772-775): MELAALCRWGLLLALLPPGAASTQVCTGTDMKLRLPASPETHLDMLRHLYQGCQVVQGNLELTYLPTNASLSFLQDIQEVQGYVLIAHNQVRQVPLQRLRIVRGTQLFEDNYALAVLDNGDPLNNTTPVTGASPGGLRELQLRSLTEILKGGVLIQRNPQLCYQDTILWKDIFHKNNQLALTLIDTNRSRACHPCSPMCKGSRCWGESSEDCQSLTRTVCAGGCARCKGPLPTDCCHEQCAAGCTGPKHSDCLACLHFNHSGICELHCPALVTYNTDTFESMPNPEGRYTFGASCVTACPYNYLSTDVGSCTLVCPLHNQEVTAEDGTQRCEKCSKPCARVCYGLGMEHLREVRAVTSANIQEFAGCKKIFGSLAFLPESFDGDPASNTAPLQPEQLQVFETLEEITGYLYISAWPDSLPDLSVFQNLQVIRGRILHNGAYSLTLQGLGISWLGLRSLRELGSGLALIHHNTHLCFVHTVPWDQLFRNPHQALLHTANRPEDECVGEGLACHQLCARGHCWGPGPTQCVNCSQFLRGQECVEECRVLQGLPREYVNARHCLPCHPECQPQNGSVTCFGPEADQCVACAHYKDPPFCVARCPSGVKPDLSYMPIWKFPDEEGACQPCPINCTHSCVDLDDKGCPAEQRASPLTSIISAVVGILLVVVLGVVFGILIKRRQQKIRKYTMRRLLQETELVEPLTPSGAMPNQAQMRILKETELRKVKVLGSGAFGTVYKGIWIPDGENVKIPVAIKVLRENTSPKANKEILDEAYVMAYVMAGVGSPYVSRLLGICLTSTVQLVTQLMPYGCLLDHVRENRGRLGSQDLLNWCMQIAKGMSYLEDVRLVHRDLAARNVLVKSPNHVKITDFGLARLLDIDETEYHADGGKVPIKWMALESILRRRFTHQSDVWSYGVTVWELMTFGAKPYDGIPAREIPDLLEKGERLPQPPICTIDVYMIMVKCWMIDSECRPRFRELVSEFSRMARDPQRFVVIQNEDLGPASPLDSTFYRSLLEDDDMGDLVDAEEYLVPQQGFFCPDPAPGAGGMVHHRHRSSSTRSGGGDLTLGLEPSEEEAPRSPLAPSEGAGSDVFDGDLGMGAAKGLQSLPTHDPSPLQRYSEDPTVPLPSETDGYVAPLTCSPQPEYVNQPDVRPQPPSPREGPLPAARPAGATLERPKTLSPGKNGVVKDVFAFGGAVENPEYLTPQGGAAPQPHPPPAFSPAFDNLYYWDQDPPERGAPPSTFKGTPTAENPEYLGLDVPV
Summary of the method: as §1

Compound | EC50 (Ba/F3 stable cells [1]) [µM] | EC50 (Ba/F3 stable cells [2]) [µM] | EC50 (Ba/F3 stable cells [3]) [µM] | EC50 (Ba/F3 stable cells [4]) [µM] | EC50 (Ba/F3 stable cells [5]) [µM] | EC50 (Ba/F3 stable cells [6]) [µM]
C=CC(=O)N1CCC(Oc2cc3c(Nc4cnc5ccccc5c4)ncnc3cc2OC)CC1 [Compound 135, 1-(4-((7-methoxy-4-(quinolin-3-ylamino)quinazolin-6-yl)oxy)piperidin-1-yl)prop-2-en-1-one] | ≤ 0.2 | 0.2 to 1 | 0.2 to 1 | ≤ 0.2 | 0.2 to 1 | 0.2 to 1
C=CC(=O)N1CCC(Oc2cc3c(Nc4nc5cc(Cl)ccc5o4)ncnc3cc2OC)CC1 [Compound 136, 1-(4-((4-((5-chlorobenzo[d]oxazol-2-yl)amino)-7-methoxyquinazolin-6-yl)oxy)piperidin-1-yl)prop-2-en-1-one] | > 1 | > 1 | > 1 | 0.2 to 1 | > 1 | > 1
C=CC(=O)N1CCC(Oc2cc3c(Nc4ccc5cn[nH]c5c4)ncnc3cc2OC)CC1 [Compound 137, 1-(4-((4-((1H-indazol-6-yl)amino)-7-methoxyquinazolin-6-yl)oxy)piperidin-1-yl)prop-2-en-1-one] | 0.2 to 1 | > 1 | > 1 | ≤ 0.2 | > 1 | 0.2 to 1
C=CC(=O)N1CCC(Oc2cc3c(Nc4ccc5cnn(C)c5c4)ncnc3cc2OC)CC1 [Compound 138, 1-(4-((7-methoxy-4-((1-methyl-1H-indazol-6-yl)amino)quinazolin-6-yl)oxy)piperidin-1-yl)prop-2-en-1-one] | ≤ 0.2 | 0.2 to 1 | 0.2 to 1 | ≤ 0.2 | 0.2 to 1 | ≤ 0.2
C=CC(=O)N1CCC(Oc2cc3c(Nc4cccc5cn[nH]c45)ncnc3cc2OC)CC1 [Compound 139, 1-(4-((4-((1H-indazol-7-yl)amino)-7-methoxyquinazolin-6-yl)oxy)piperidin-1-yl)prop-2-en-1-one] | > 1 | > 1 | > 1 | ≤ 0.2 | > 1 | > 1
C=CC(=O)N1CCC(Oc2cc3c(Nc4ccc5cnccc5c4)ncnc3cc2OC)CC1 [Compound 140, 1-(4-((4-(isoquinolin-6-ylamino)-7-methoxyquinazolin-6-yl)oxy)piperidin-1-yl)prop-2-en-1-one] | > 1 | > 1 | > 1 | > 1 | > 1 | > 1
C=CC(=O)N1CCC(Oc2cc3c(Nc4ccc5cccnc5c4)ncnc3cc2OC)CC1 [Compound 141, 1-(4-((7-methoxy-4-(quinolin-7-ylamino)quinazolin-6-yl)oxy)piperidin-1-yl)prop-2-en-1-one] | 0.2 to 1 | > 1 | 0.2 to 1 | ≤ 0.2 | 0.2 to 1 | 0.2 to 1
C=CC(=O)N1CCC(Oc2cc3c(Nc4ccc5scnc5c4)ncnc3cc2OC)CC1 [Compound 142, 1-(4-((4-(benzo[d]thiazol-5-ylamino)-7-methoxyquinazolin-6-yl)oxy)piperidin-1-yl)prop-2-en-1-one] | ≤ 0.2 | > 1 | 0.2 to 1 | ≤ 0.2 | 0.2 to 1 | ≤ 0.2
C=CC(=O)N1CCC(Oc2cc3c(Nc4ccc5ncccc5c4)ncnc3cc2OC)CC1 [Compound 143, 1-(4-((7-methoxy-4-(quinolin-6-ylamino)quinazolin-6-yl)oxy)piperidin-1-yl)prop-2-en-1-one] | ≤ 0.2 | > 1 | 0.2 to 1 | ≤ 0.2 | 0.2 to 1 | 0.2 to 1
C=CC(=O)N1CCC(Oc2cc3c(Nc4ccc5nccnc5c4)ncnc3cc2OC)CC1 [Compound 144, 1-(4-((7-methoxy-4-(quinoxalin-6-ylamino)quinazolin-6-yl)oxy)piperidin-1-yl)prop-2-en-1-one] | > 1 | > 1 | > 1 | 0.2 to 1 | > 1 | > 1
